Assay results published in patent US20210140962A1, “COMPOUND AND METHOD OF MEASURING INTESTINAL PERMEABILITY AND LEAKY GUT” (priority 2017, published 2021).

What was measured:
intestinal permeability = conditions: rodent model with gradual deterioration of insulin sensitivity and eventual onset of diabetes; oral gavage; change over time (FIG. 5)
Protocol: 100 μg of non-radioactive Cr-EDTA in aqueous solution was administered to C57BL/6 mice and Wistar rats by oral gavage. A urine sample from the animals was then collected 6-10 hours after administration.
The urine sample taken from the animal was incubated with strongly acidic cation exchange resin wherein the active group is nuclear sulfonic acid, e.g., 33% by volume slurry of DOWEX-50-H+® cation exchange resin equilibrated with distilled water at room temperature.
Naturally occurring background Cr ions in the urine were correspondingly bound to the resin. […] The samples were then centrifuged, with the supernatant containing the fraction of administered Cr-EDTA that crossed the intestinal barrier.
The supernatant was injected directly into a Gas Furnace Atomic Absorption Spectroscope (GFAAS) using a graphite tube. The GFAAS apparatus had been calibrated to yield the concentration of Cr in each sample.

[1] = aqueous solution about 2.5 mM; comprised of materials verified as being non-toxic by the FDA; cited from earlier work

ratio of Cr to creatinine in urine samples (intestinal permeability): measurable increase
Compound: O=C(O)CN(CCN(CC(=O)O)CC(=O)O)CC(=O)O.[Cr] [Cr-EDTA, chromium EDTA complex]
toxicity [1]: non-toxic
